From PMC6905855, “Agonist-specific voltage-dependent gating of lysosomal two-pore Na^+ channels” (eLife, 2019)
“And” between values parts separate entries of the source, which are not always exact repeats. Equal entries are not always repeated. “Also recorded” adds a separate entry of the source.

How the values were obtained:
[1] = biological target: T1, surface-expressing mutant TPC2 channel (TPC2^LL/AA) in HEK293 cells (Homo sapiens, UniProt Q8NHX9, L11A/L12A); assay: Whole-cell recordings of ITPC2-LL/AA; assay type: cell-based; settings: for voltage-dependent inactivation of ITPC2, I1s / 0s: @-140mV, whole-cell
T1 construct: expressed in transfected cells; host or cells: HEK293
T1 sequence (Q8NHX9 whole entry L11A/L12A): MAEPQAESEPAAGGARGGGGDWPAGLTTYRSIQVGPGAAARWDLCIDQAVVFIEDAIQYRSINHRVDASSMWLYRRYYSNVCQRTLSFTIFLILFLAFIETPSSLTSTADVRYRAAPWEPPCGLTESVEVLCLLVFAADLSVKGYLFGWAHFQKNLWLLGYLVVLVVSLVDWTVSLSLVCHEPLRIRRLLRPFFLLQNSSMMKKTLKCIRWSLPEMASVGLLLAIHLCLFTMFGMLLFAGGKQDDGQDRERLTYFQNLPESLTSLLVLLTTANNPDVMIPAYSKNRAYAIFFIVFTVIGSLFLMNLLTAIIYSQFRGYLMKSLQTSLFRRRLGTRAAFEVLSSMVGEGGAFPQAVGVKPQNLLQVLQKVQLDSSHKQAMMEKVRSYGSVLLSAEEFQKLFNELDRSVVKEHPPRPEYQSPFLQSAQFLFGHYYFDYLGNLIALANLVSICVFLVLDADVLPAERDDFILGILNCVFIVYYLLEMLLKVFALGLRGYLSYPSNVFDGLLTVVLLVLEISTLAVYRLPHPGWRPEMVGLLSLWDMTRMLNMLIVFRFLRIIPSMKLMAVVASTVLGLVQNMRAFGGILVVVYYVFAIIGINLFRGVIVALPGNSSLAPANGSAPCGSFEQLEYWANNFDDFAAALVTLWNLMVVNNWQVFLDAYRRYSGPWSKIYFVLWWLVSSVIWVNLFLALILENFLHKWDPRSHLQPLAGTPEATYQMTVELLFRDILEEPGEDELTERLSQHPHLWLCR
In short: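 HEK293 cells transiently expressing EGFP-tagged human TPC2 L11A/L12A, a plasma-membrane-targeted mutant, recorded 24–36 h post-transfection. Whole-cell patch clamp with fast perfusion of bath solutions; currents digitized at 10 kHz and filtered at 2 kHz.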

hTPC2 = biological target: T2, hTPC2 (Homo sapiens, UniProt Q8NHX9); assay: Whole-endolysosome recordings of ITPC2; assay type: biochemical; settings: for Dose-dependent activation of TPC2 (normalized current): individual patches; for inactivation of ITPC2, I500ms / I10ms: @-120mV
T2 construct: expressed in transfected cells; host or cells: Cos1 and HEK293
T2 sequence (Q8NHX9 whole entry): as the sequence (Q8NHX9 whole entry L11A/L12A) above, with A11L, A12L counted along it

hTPC1 = biological target: T3, hTPC1 (Homo sapiens, UniProt Q9ULQ1); assay: Whole-endolysosome recordings of ITPC1; assay type: biochemical
T3 construct: expressed in transfected cells; host or cells: Cos1
Protocol: It was therefore of interest to explore whether TCAs/LyNa-VAs could also act on TPC1. To investigate this, we used two different voltage paradigms. […] Second, we used a tail current paradigm to measure the amplitude of the peak inward current at −120 mV following prolonged steps to various potentials (Figure 4E).
Figure 4. […] HP = 0 mV. […] Dotted lines in A indicate where the currents were measured. […] Data are presented as Mean ± S.E.M (n = 3 patches). […] (G) Normalized I-V plots of basal voltage-dependent currents in WT TPC1- and TPC1^R540I-transfected cells. […] Figure 4—source data 1. […] Figure 4—figure supplement 1. […] (A) A voltage protocol that elicited ITPC1 tail currents as shown in Figure 4E (from −140 to 100 mV with a ∆V = 20 mV, 1 s with a 10 s inter-step interval). Arrows indicate where tail currents were measured. (B) A voltage protocol that elicited ITPC1 tail currents as shown in C. […] HP = 0 mV. […] (A) Basal whole-endolysosome ITPC1 (left) or ITPC1-R540I (right) was elicited by voltage steps (−140 to +100 mV with ΔV = 20 mV) in the absence of PI(3,5)P2 in TPC1-transfected Cos1 cells ([She et al., 2019]). Tail currents were elicited at −120 mV. (B) The effects of PI(3,5)P2 (0.3 µM) on ITPC1 (left) and ITPC1-R540I (right) step currents. […] A preconditioning voltage (+80 mV, 0.1 s) was applied before voltage steps starting from −140 to 100 mV (0.5 s, ∆V = 20 mV).
All TPC1 and TPC2 mutants were generated with a site-directed mutagenesis kit (Qiagen) using EGFP- human TPC1 and TPC2 as the templates. All constructs were confirmed by DNA sequencing.
Whole-endolysosome recordings were performed on manually isolated enlarged endolysosomes ([Wang et al., 2012]). In brief, a patch pipette was pressed against a cell and quickly pulled away to slice the cell membrane. Enlarged endolysosomes were released into a dish and identified by monitoring EGFP-TPC1/2 or the mCherry-TPC1/2 fluorescence. After formation of a gigaseal between the patch pipette and the enlarged endolysosome, capacitance transients were compensated. Voltage steps of several hundred mVs with millisecond duration were then applied to break into the vacuolar membrane. The whole-endolysosome configuration was verified by the re-appearance of capacitance transients after break-in.
Data were collected using an Axopatch 200A patch clamp amplifier, Digidata 1440, and pClamp 10.2 software (Axon Instruments). Whole-endolysosome currents were digitized at 10 kHz and filtered at 2 kHz. All experiments were conducted at room temperature (21–23°C), and all recordings were analyzed with pClamp 10.2, and Origin 8.0 (OriginLab, Northampton, MA). The permeability to cations (relative to PNa) was estimated based on following equations ([Lewis, 1979]) and Erev measurement under bi-ionic conditions:(1) PX/PNa=γNa/γX{[Na^+]Luminal/[X^+]Cytoplasmic}{exp([…])} (2) PCa/PNa=γNa/γCa{[Na^+]Cytoplasmic/[4[Ca^2+]Luminal}{exp(ErevF/RT)}{1+exp(ErevF/RT)} where R, T, F, Erev, and γ are, respectively, the gas constant, absolute temperature, Faraday constant, reversal potential, and activity coefficient. The liquid junction potentials were measured and corrected as described ([Neher, 1992]).

[2] = LyNA1 (300 µM)-induced whole-cell ITPC2-LL/AA, individual
[3] = PI(3,5)P2 0.3 µM, LyNa-VA1.2 100 µM, LyNA1 300 µM, individual tests

## Nc1nc2ccc(OC(F)(F)F)cc2s1 [LyNA1, Riluzole]
[1]; individual recordings
  voltage-dependent inactivation of ITPC2, I1s / 0s: 0.9086 and 1.046 and 0.9409
[1]; mean
  voltage-dependent inactivation of ITPC2, I1s / 0s: 0.9653
[1]; [2]
  Px/PNa+, Ca2+: 0.09045 and 0.1026 and 0.1022 and 0.09007
  Px/PNa+, K+: 0.05625 and 0.0959 and 0.1041
  Px/PNa+, Na+: 0.8393 and 1.008 and 0.9746
[1]; bath application, symmetric Na^+, 100 µM where stated
  activation of whole-cell ITPC2-LL/AA (in words): activated large and linear whole-cell currents
hTPC2
  cation selectivity of induced whole-endolysosome ITPC2 (in words): highly selective for Na^+ over K^+
  voltage dependence of TPC2 activation (in words): voltage independent; also recorded: no apparent voltage-dependent activation
hTPC2; 10 µM +10nM PI(3,5)P2
  Dose-dependent activation of TPC2 (normalized current): 0.03469 and -0.1321 and -0.1628
hTPC2; 50 µM +10nM PI(3,5)P2
  Dose-dependent activation of TPC2 (normalized current): 0.02967 and -0.04581 and -0.07904
hTPC2; 50 µM, absence of PI(3,5)P2
  Dose-dependent activation of TPC2 (normalized current): 0.02084 and 0.03963 and 0.0267
hTPC2; 100 µM +10nM PI(3,5)P2
  Dose-dependent activation of TPC2 (normalized current): 0.3825 and 0.3197 and 0.06652
hTPC2; 100 µM, absence of PI(3,5)P2
  Dose-dependent activation of TPC2 (normalized current): 0.1347 and 0.1166 and 0.2034 and 0.258 and 0.1062
hTPC2; 150 µM +10nM PI(3,5)P2
  Dose-dependent activation of TPC2 (normalized current): 0.5952 and 0.5358 and 0.2713
hTPC2; 150 µM, absence of PI(3,5)P2
  Dose-dependent activation of TPC2 (normalized current): 0.4553 and 0.5013 and 0.5031 and 0.7594 and 0.3882
hTPC2; 300 µM +10nM PI(3,5)P2
  Dose-dependent activation of TPC2 (normalized current): 0.9432 and 0.8992 and 0.9659
hTPC2; 300 µM, absence of PI(3,5)P2
  Dose-dependent activation of TPC2 (normalized current): 0.9388 and 0.9543
hTPC2; 400 µM +10nM PI(3,5)P2
  Dose-dependent activation of TPC2 (normalized current): 1 (2×) and 1.003
hTPC2; 400 µM, absence of PI(3,5)P2
  Dose-dependent activation of TPC2 (normalized current): 0.9725 and 0.9884 and 0.9899 and 0.9935 and 0.9997 and 0.9921
hTPC2; + PI(3,5)P2 (10 nM)
  EC50: 175 ± 19 µM
hTPC2; - PI(3,5)P2
  EC50: 181 ± 6 µM
hTPC2; [3]
  inactivation of ITPC2, I500ms / I10ms: 0.9047 and 1.003 and 0.9967 and 0.9738
  Rectification index of ITPC2, I+80mV/I-80mV: 0.903 and 1.02 and 0.912 and 0.8953
hTPC2; mean
  inactivation of ITPC2, I500ms / I10ms: 0.9697
hTPC2; PI(3,5)P2 50 nM
  combined effect with PI(3,5)P2 on whole-endolysosome ITPC2 (in words): additive but not synergistic activation; also recorded: Additive effects
hTPC2; PI(3,5)P2 0.3 µM, LyNa-VA1.2 100 µM, LyNA1 300 µM, mean
  Rectification index of ITPC2, I+80mV/I-80mV: 0.93 ± 0.03 and 0.9325
hTPC2; bath application, symmetric Na^+
  activation of whole-endolysosome ITPC2 (in words): readily activated ITPC2
hTPC2; voltage-step protocols, at all potentials
  I@500ms/I@10ms (current decline at steady state): ~1.0
hTPC1
  effect on whole-endolysosome ITPC1 (in words): inhibited ITPC1
